Assay results reported in US10188665B2, “Ocular therapy using glucocorticoid derivatives selectively penetrating posterior segment tissues” (Allergan, Inc., priority 2005, dated 2019).

What was measured:
[1] = tested on: VEGF-induced BRB breakdown (retinal leakage); assay: VEGF-induced blood retinal barrier (BRB) breakdown, scanning ocular fluorophotometry of fluorescein leakage; type: in vivo, rabbit; settings: for Inhibition of VEGF-induced BRB breakdown (fluorescein leakage into posterior segment): rabbit eye, 1 mg (100 μl of 10 mg/ml suspension) intravitreal, then intravitreal VEGF, read 48 h later; for Block of VEGF-induced BRB breakdown (retinal leakage): corticosteroid administered systemically or intravitreally
Protocol: (§1) Recombinant vascular endothelial growth factor (VEGF) was obtained from a supplier (R&D Systems). Female Dutch Belt rabbits were anaesthetized with isoflurane inhalation and topical 0.5% proparacaine hydrochloride, and intravitreal injection of one eye with 500 ng VEGF in sterile phosphate buffered saline (PBS) containing 0.1% bovine serum albumin was performed using a 28 guage ½ inch needle. The other eye is given the same volume of the vehicle, without the VEGF.
(§2) The extent of VEGF-induced BRB and BAB breakdown of the blood retinal barrier and the blood aqueous barrier was measured by scanning ocular fluorophotemetry (Fluorotron Master, Ocumetrics Inc.); at various times following intravitreal injection. In this model a fluorescent label is administered intravenously, following by determination of the amount of fluorescenin in the anterior and posterior segment and an indication of iridial and retinal leakage, respectively.
(§3) Sodium fluorescein in 1 ml saline was injected via the marginal ear vein at a concentration of 50 mg/kg, and ocular fluorescein levels in the vitreoretinal chamber and the anterior chamber was determined 50 minutes later.
(§4) Ten milligrams of each compound is added to 1 ml of sterile phosphate-buffered saline (PBS; ph 7.4). At day 0, 100 ml of a 10 mg/ml suspension of each steroid is injected into the vitreous of a rabbit eye. The PBS vehicle is injected into the other eye. VEGF is then injected at a pre-determined time (one month) thereafter, and BRB and BAB breakdown were measured by scanning ocular fluorophotometry 48 hrs later as described in Edelman et al., EXP.

[2] = tested on: VEGF-induced BAB breakdown (iris leakage); assay: VEGF-induced blood aqueous barrier (BAB) breakdown, scanning ocular fluorophotometry of fluorescein leakage; type: in vivo, rabbit; settings: for Inhibition of VEGF-induced BAB breakdown (fluorescein leakage into anterior segment): rabbit eye, 1 mg (100 μl of 10 mg/ml suspension) intravitreal, then intravitreal VEGF, read 48 h later; for Block of VEGF-induced BAB breakdown (iris leakage): corticosteroid administered systemically or intravitreally
Protocol: as §1, §2, §3, §4

[3] = Treatment of cystic macular edema with a GD implant (Example 4); type: in vivo, human
Protocol: A person diagnosed with cystic macular edema treated by administration of a biodegradable drug delivery system administered to each eye of the patient. […] A similar implant is administered subconjunctivally to the patient's right eye. […] No increase in intraocular pressure is seen one week after administration.

[4] = Treatment of wet ARMD with a GD composition (Example 5); type: in vivo, human; settings: person, intravitreal 100 μl hyaluronic acid solution with about 1000 μg crystals; within one month
Protocol: A person with wet age-related macular degeneration is treated with an intravitreal injection of 100 μl of a hyaluronic acid solution containing about 1000 μg of fluticasone propionate crystals in suspension.

[5] = rabbit, 500 ng VEGF intravitreal, 48 h, 50 min after i.v. fluorescein

| Molecule | Inhibition of VEGF-induced BRB breakdown (fluorescein leakage into posterior segment) [1] | Block of VEGF-induced BRB breakdown (retinal leakage) ([1]; rabbit) | Inhibition of VEGF-induced BAB breakdown (fluorescein leakage into anterior segment) [2] | Block of VEGF-induced BAB breakdown (iris leakage) ([2]; rabbit) | further results |
| --- | --- | --- | --- | --- | --- |
| VEGF | – | – | – | – | Increase in fluorescein contained in the vitreous versus normal untreated eyes [1, 5]: approximately 18 fold; Increase in fluorescein contained in the aqueous versus normal untreated eyes [2, 5]: approximately 6 fold |
| C[C@H]1C[C@H]2[C@@H]3CCC4=CC(=O)C=C[C@]4(C)[C@@]3(Cl)[C@@H](O)C[C@]2(C)[C@@]1(O)C(=O)CO [beclomethasone] | inhibited | completely blocked | inhibited | completely blocked | – |
| CC1(C)O[C@@H]2C[C@H]3[C@@H]4CCC5=CC(=O)C=C[C@]5(C)[C@@]4(F)[C@@H](O)C[C@]3(C)[C@]2(C(=O)CO)O1 [Triamcinolone acetonide, triamcinolone acetonide] | completely inhibited | completely blocked | completely inhibited | completely blocked | – |
| CCC(=O)OCC(=O)[C@@]1(OC(=O)CC)[C@@H](C)C[C@H]2[C@@H]3CCC4=CC(=O)C=C[C@]4(C)[C@@]3(Cl)[C@@H](O)C[C@@]21C [Beclomethasone dipropionate, beclomethasone dipropionate] | – | – | – | – | Inhibition of VEGF-induced BRB breakdown (fluorescein leakage into posterior segment) ([1]; listed as beclomethasone 17,21-dipropionate): completely blocks; Appearance of retina ([3]; person, implant of about 1000 μg PLGA and about 1000 μg drug, intravitreal left eye, subconjunctival right eye, about 3 months after surgery): appears normal; Degeneration of the optic nerve ([3]; same patient, about 3 months after surgery): appears to be reduced; Intraocular pressure ([3]; same patient, one week after administration): No increase |
| CCC(=O)O[C@]1(C(=O)SCF)[C@H](C)C[C@H]2[C@@H]3C[C@H](F)C4=CC(=O)C=C[C@]4(C)[C@@]3(F)[C@@H](O)C[C@@]21C [Fluticasone propionate, fluticasone propionate] | completely blocks | – | – | – | Rate of neovascularization and related inflammation [4]: acceptable reduction |
